Reference: ChEMBL document CHEMBL1926633, “1,2,4-Triazole D-ribose derivatives: design, synthesis and antitumoral evaluation” (Eur J Med Chem, 2012)

Columns and labels:
[1] = Cytotoxicity against mouse BW5147 cells expressing H-2 k haplotype, CD3+ and TCRalphabeta assessed as cell proliferation at 50 ug/mL after 24 hrs by [3H]TdR incorporation assay relative to control; type: functional; settings: read-out: Activity
[2] = Cytotoxicity against mouse BW5147 cells expressing H-2 k haplotype, CD3+ and TCRalphabeta assessed as cell proliferation at 1 ug/mL after 24 hrs by [3H]TdR incorporation assay relative to control; type: functional; settings: read-out: Activity
[3] = Lipophilicity, log P of the compound; type: physicochemical; settings: octanol/water
[4] = Cytotoxicity against mouse BW5147 cells expressing H-2 k haplotype, CD3+ and TCRalphabeta assessed as cell proliferation at 100 ug/mL after 24 hrs by [3H]TdR incorporation assay relative to control; type: functional; settings: read-out: Activity
[5] = Cytotoxicity against mouse BW5147 cells expressing H-2 k haplotype, CD3+ and TCRalphabeta assessed as cell proliferation at 10 ug/mL after 24 hrs by [3H]TdR incorporation assay relative to control; type: functional; settings: read-out: Activity

Structure (SMILES)	growth at 50 µg/mL [1] [%]	growth at 1 µg/mL [2] [%]	logP [3]	growth at 100 µg/mL [4] [%]	growth at 10 µg/mL [5] [%]
C=CCO[C@@H]1O[C@H](CSc2ncn[nH]2)[C@H]2OC3(CCCC3)O[C@@H]12	-29	-7	1.95	-43	-9
C=CCO[C@@H]1O[C@H](CSc2ncn[nH]2)[C@@H](O)[C@H]1O	-14	-2.4	-2.45	-38	-3
C=CCO[C@@H]1O[C@H](Cn2c(-c3ccc(Cl)cc3)n[nH]c2=S)[C@H]2OC3(CCCC3)O[C@@H]12	70	49	1.91	123	44
C=CCO[C@@H]1O[C@H](Cn2c(-c3ccc(Cl)cc3)n[nH]c2=S)[C@@H](O)[C@H]1O	4.4	-1.5	0.18	2	6
C=CCO[C@@H]1O[C@H](Cn2c(SCc3ccccc3)nnc2-c2ccc(Cl)cc2)[C@H]2OC3(CCCC3)O[C@@H]12	-13	37	1.63	–	0
COc1cc(C2=NOC(CO[C@@H]3O[C@H](CSc4ncn[nH]4)[C@H]4OC5(CCCC5)O[C@@H]34)C2)cc(OC)c1OC (mixture of isomers)	-24	-5	0.9	-45	-21
COc1cc(C2=NOC(CO[C@@H]3O[C@H](CSc4ncn[nH]4)[C@@H](O)[C@H]3O)C2)cc(OC)c1OC (mixture of isomers)	43	93	-0.52	29	51
COc1cc(C2=NOC(CO[C@@H]3O[C@H](Cn4c(SCc5ccccc5)nnc4-c4ccc(Cl)cc4)[C@H]4OC5(CCCC5)O[C@@H]34)C2)cc(OC)c1OC (mixture of isomers)	-18	215	1.97	-45	60
COc1cc(C2=NOC(CO[C@@H]3O[C@H](Cn4c(SCc5ccccc5)nnc4-c4ccc(Cl)cc4)[C@@H](O)[C@H]3O)C2)cc(OC)c1OC (mixture of isomers)	-52	143	1.17	-67	210
